The values that follow come from patent US4177264A, “N-benzyl anthracyclines” (priority 1978, dated 1979).

Structures are written as SMILES. Like-named read-outs stand apart in the source and are kept apart here.

One may read the ΔTm as the shift of the melting midpoint relative to a reference.

In experiment [1] the test system is isolated helical DNA. The experiment in a line: ΔTm of isolated helical DNA (DNA-binding). Conditions: difference in DNA melting temperature with and without drug; ~1° weak binding if any, ≥5° significant binding. The source says: (§1) Sufficient samples of all but compound (VIII) have been obtained for biological screening, and recent results of tests both in vitro and in vivo are shown in Table 2 below. […] The in vitro results are surprising and appear to be highly significant in that there is an abrupt and unexpected loss of DNA-binding properties in going from N-benzyl to N,N-dibenzyl compounds. ΔTm is the most direct measure of DNA-binding but the inhibition of nucleic acid synthesis is also lost. Most of the anthracyclines bind to DNA, presumably by an intercalation mechanism and are mutagenic. In these N,N-dibenzyl compounds the anti-tumor activity in the mouse screen is retained but the DNA-binding properties are lost.
^b ΔTm values represent the difference in temperature
between that at which the DNA denatures (or melts) without the drug and
that at which denaturing occurs in the presence of the drug;

The test system of experiment [2] is L1210 Cells. The experiment is described as follows: Inhibition of DNA synthesis in L1210 cells. It is filed as cell-based. Conditions: Mus musculus. An excerpt: (§2) ^c Assay described in G. Tong, W. W. Lee, D. R. Black and D. W. Henry
Experiment [3] relates to L1210 Cells. The experiment in a line: Inhibition of RNA synthesis in L1210 cells. It is filed as cell-based. Particulars: Mus musculus.
Excerpt: as §2

Experiment [4] concerns leukemia P388. The experiment in a line: Ip P388 leukemia in mice, survival time (NCI Protocol 1,200). It is filed as in vivo. Particulars: for response vs control in vivo at 37.5 mg/kg: q4d 5,9,13, 37.5 mg/kg (optimum dose); for response vs control in vivo at 8 mg/kg: q4d 5,9,13, 8 mg/kg.
Excerpt: as §1
Highest Mean T/C vs P388 in
^d Ip P388 leukemia treated ip on QD1-9 and Q4D 5,9,13 schedules
according to standard NCI protocols. Assay described in R. I. Geran, N. H
Greenberg, M. M. MacDonald, A. M. Schumacker and B. J. Abbott, Cancer
Chemother. Rep., Part 3, 3, (No. 2), 9 (1972), Protocol 1,200. T/C = rati
of survival time of treated mice to that of untreated controls times 100.
Untreated controls survive about 9 days. For Dnm and Adm, % T/C values ar
means from several dozen tests, with standard deviation up to ±40. For
the Nbenzyl compounds, % T/C values are means from all the tests (1 to 3)
so far, at the optimum dose.

[5] abbreviates: L1210 cells, DNA synthesis, read-out: Inhib of Synth, DNA, ED50.
The mark [6] stands for this setting: L1210 cells, RNA synthesis, read-out: Inhib of Synth, RNA, ED50.
The mark [7] stands for this setting: Mus musculus, P388, ip, mean from 1 to 3 tests, read-out: Highest Mean T/C vs P388 in Mice.
[8] abbreviates: L1210, read-out: Inhib of Synth, DNA, ED50.
The mark [9] stands for this setting: L1210, read-out: Inhib of Synth, RNA, ED50.
The mark [10] stands for this setting: Mus musculus, P388, ip, read-out: Highest Mean T/C vs P388 in Mice.
The mark [11] stands for this setting: Mus musculus, P388, ip, qd 1-9, 6.25 mg/kg (optimum dose), mean from 1 to 3 tests, read-out: Highest Mean T/C vs P388 in Mice.
The mark [12] stands for this setting: Mus musculus, P388, ip, mean from several dozen tests, SD up to ±40, read-out: Highest Mean T/C vs P388 in Mice.

Regarding `COc1cccc2c1C(=O)c1c(O)c3c(c(O)c1C2=O)C[C@@](O)(C(C)=O)C[C@@H]3O[C@H]1C[C@H](N(Cc2ccccc2)Cc2ccccc2)[C@H](O)[C@H](C)O1` [Compound V, N,N-Dibenzyldaunomycin], in experiment [1], the ΔTm worked out at 1.35 °C. The results for the IC50 in experiment [2] (setting [5]) and in experiment [3] (setting [6]) were above 100 µM and 10 µM, respectively. Also, the response vs control in vivo at 37.5 mg/kg in experiment [4] (setting [7]) was determined as 227%. Further, in experiment [4] (Mus musculus, P388, ip, qd 1-9, 25 mg/kg (optimum dose), mean from 1 to 3 tests, read-out: Highest Mean T/C vs P388 in Mice), the response vs control in vivo at 25 mg/kg turned out to be 259%. The “activity against leukemia P388 in mice (in words)” value in experiment [4] (ip, mice) is on record as “clearly the best”.
`COc1cccc2c1C(=O)c1c(O)c3c(c(O)c1C2=O)C[C@@](O)(C(C)O)C[C@@H]3O[C@H]1C[C@H](N(Cc2ccccc2)Cc2ccccc2)[C@H](O)[C@H](C)O1` (stereo partly shown) [Compound VI, N,N-Dibenzyl-13-dihydrodaunomycin]: the ΔTm in experiment [1] amounted to 0.6 °C. Besides, the IC50 in experiment [2] (L1210 cells, DNA synthesis, (susp), read-out: Inhib of Synth, DNA, ED50 (susp)) was found to be 220 µM; in experiment [3] (setting [6]), 7.6 µM. Besides, the response vs control in vivo at 50 mg/kg in experiment [4] (Mus musculus, P388, ip, q4d 5,9,13, 50 mg/kg (optimum dose), mean from 1 to 3 tests, read-out: Highest Mean T/C vs P388 in Mice) worked out at 233%. Besides, the response vs control in vivo at 40 mg/kg in experiment [4] (Mus musculus, P388, ip, qd 1-9, 40 mg/kg (optimum dose), mean from 1 to 3 tests, read-out: Highest Mean T/C vs P388 in Mice) came to 229%.
Regarding `COc1cccc2c1C(=O)c1c(O)c3c(c(O)c1C2=O)C[C@@](O)(C(=O)CO)C[C@@H]3O[C@H]1C[C@H](N(Cc2ccccc2)Cc2ccccc2)[C@H](O)[C@H](C)O1` [Compound VII, N,N-Dibenzyladriamycin], in experiment [1], the ΔTm was -1.2 °C. The IC50 in experiment [2] (setting [8]) worked out at 110 µM; in experiment [3] (setting [9]), 4.8 µM. Besides, in experiment [4] (setting [10]), the response vs control in vivo at 6.25 mg/kg was 175%.
Regarding `COc1cccc2c1C(=O)c1c(O)c3c(c(O)c1C2=O)C[C@@](O)(C(C)=O)C[C@@H]3O[C@H]1C[C@H](NCc2ccccc2)[C@H](O)[C@H](C)O1` [I, N-Benzyldaunomycin], in experiment [1], the ΔTm is 10.2 °C. For the same molecule, in experiment [2] (setting [8]), the IC50 was found to be 1.6 µM. For the same molecule, the IC50 in experiment [3] (setting [9]) amounted to 0.17 µM. Moreover, in experiment [4] (setting [10]), the response vs control in vivo at 6.25 mg/kg stood at 187% and the response vs control in vivo at 18.8 mg/kg is 226%.
Take `COc1cccc2c1C(=O)c1c(O)c3c(c(O)c1C2=O)C[C@@](O)(C(C)O)C[C@@H]3O[C@H]1C[C@H](NCc2ccccc2)[C@H](O)[C@H](C)O1` (stereo partly shown) [II, N-Benzyl-13-dihydrodaunomycin]: the ΔTm in experiment [1] was 6.25 °C. Besides, the figures for the IC50 in experiment [2] (setting [5]) and in experiment [3] (setting [6]) were 1.7 µM and 0.32 µM, respectively. The response vs control in vivo at 6.25 mg/kg in experiment [4] (setting [11]) was 226%.
For `COc1cccc2c1C(=O)c1c(O)c3c(c(O)c1C2=O)C[C@@](O)(C(=O)CO)C[C@@H]3O[C@H]1C[C@H](NCc2ccccc2)[C@H](O)[C@H](C)O1` [III, N-Benzyladriamycin], the ΔTm in experiment [1] turned out to be 11.3 °C. Moreover, the IC50 came out at 0.65 µM in experiment [2] (setting [5]) and 0.09 µM in experiment [3] (setting [6]). Moreover, the response vs control in vivo at 18.8 mg/kg in experiment [4] (Mus musculus, P388, ip, q4d 5,9,13, 18.8 mg/kg (optimum dose), mean from 1 to 3 tests, read-out: Highest Mean T/C vs P388 in Mice) is 200%. The response vs control in vivo at 6.25 mg/kg in experiment [4] (setting [11]) stood at 224%.
Regarding `COc1cccc2c1C(=O)c1c(O)c3c(c(O)c1C2=O)C[C@@](O)(C(O)CO)C[C@@H]3O[C@H]1C[C@H](NCc2ccccc2)[C@H](O)[C@H](C)O1` (stereo partly shown) [IV, N-Benzyl-13-dihydroadriamycin], the ΔTm in experiment [1] is 7.6 °C. Also, the results for the IC50 in experiment [2] (setting [5]) and in experiment [3] (setting [6]) were 1.4 µM and 0.29 µM, respectively. For the same molecule, the response vs control in vivo at 37.5 mg/kg in experiment [4] (setting [7]) came to 143%. For the same molecule, in experiment [4] (Mus musculus, P388, ip, qd 1-9, 1.56 mg/kg (optimum dose), mean from 1 to 3 tests, read-out: Highest Mean T/C vs P388 in Mice), the response vs control in vivo at 1.56 mg/kg amounted to 196%.
With `COc1cccc2c1C(=O)c1c(O)c3c(c(O)c1C2=O)C[C@@](O)(C(C)=O)C[C@@H]3O[C@H]1C[C@H](N)[C@H](O)[C@H](C)O1` [IX, Daunomycin, reference compound], the IC50 in experiment [2] (setting [5]) stood at 1 µM; in experiment [3] (setting [6]), 0.3 µM. The response vs control in vivo at 8 mg/kg in experiment [4] (setting [12]) was 134%. Moreover, the response vs control in vivo at 0.5 mg/kg in experiment [4] (Mus musculus, P388, ip, qd 1-9, 0.5 mg/kg, mean from several dozen tests, SD up to ±40, read-out: Highest Mean T/C vs P388 in Mice) amounted to 167%.
Turning to `COc1cccc2c1C(=O)c1c(O)c3c(c(O)c1C2=O)C[C@@](O)(C(=O)CO)C[C@@H]3O[C@H]1C[C@H](N)[C@H](O)[C@H](C)O1` [X, Adriamycin, reference compound], in experiment [1], the ΔTm turned out to be 13.4 °C. Also, the values for the IC50 in experiment [2] (setting [5]) and in experiment [3] (setting [6]) were 1.5 µM and 0.67 µM, respectively. In experiment [4] (setting [12]), the response vs control in vivo at 8 mg/kg stood at 157%. In experiment [4] (Mus musculus, P388, ip, qd 1-9, 1.0 mg/kg, mean from several dozen tests, SD up to ±40, read-out: Highest Mean T/C vs P388 in Mice), the response vs control in vivo at 1 mg/kg was 193%.
